For data set [1], the system named is Enterococcus faecalis. Kind of data set: Antibacterial activity against multidrug resistant Enterococcus faecalis ATCC 51299. In kind it is functional.
Data set [2] relates to Enterococcus faecalis. Briefly: Antibacterial activity against Enterococcus faecalis clinical isolate 13. In kind it is functional.
Data set [3] has as its system Staphylococcus aureus. Briefly: Antibiofilm activity in methicillin resistant Staphylococcus aureus clinical isolate 003 by crystal violet staining based analysis. In kind it is functional.
In data set [4] the test system is Enterococcus faecalis. Briefly: Antibiofilm activity in multidrug resistant Enterococcus faecalis ATCC 51299 by crystal violet staining based analysis. In kind it is functional.
Data set [5] can be described thus: Toxicity in Galleria mellonella assessed as survival rate at 10 mg/kg observed after 7 days. Format: organism-based. The following applies: in vivo, time 7 day.
Data set [6] concerns Staphylococcus aureus. Briefly: Antibacterial activity against methicillin resistant Staphylococcus aureus clinical isolate 003 infected in cyclophosphamide immunosuppressed mouse model of skin wound infection assessed as wound healing at 5 mg/kg administered for 7 days and measured on day 8. The following applies: time 8.0 day. Format: functional, organism-based.
Data set [7] has as its system Staphylococcus aureus. Briefly: Antibacterial activity against methicillin resistant Staphylococcus aureus clinical isolate 003 infected in cyclophosphamide immunosuppressed mouse model of skin wound infection assessed as reduction in bacterial load in wound at 5 mg/kg administered for 7 days and measured on day 8 (reference value: 1.6 x 10^8 CFU). The following applies: time 8 day. Format: functional.

Data set [8] concerns Staphylococcus aureus. Kind of data set: Antibacterial activity against methicillin resistant Staphylococcus aureus clinical isolate 003. Format: functional.
Data set [9] relates to Staphylococcus aureus. Briefly: Antibacterial activity against methicillin resistant Staphylococcus aureus clinical isolate 031. Format: functional.
Data set [10] concerns Staphylococcus aureus. Kind of data set: Antibacterial activity against methicillin resistant Staphylococcus aureus clinical isolate 011. In kind it is functional.
Data set [11] has as its system Staphylococcus aureus. Kind of data set: Antibacterial activity against Staphylococcus aureus clinical isolate 29. In kind it is functional.
The subject of data set [12] is Staphylococcus aureus. Kind of data set: Antibacterial activity against Staphylococcus aureus clinical isolate 31. Format: functional.
For data set [13], the system named is Enterococcus faecalis. Briefly: Antibacterial activity against Enterococcus faecalis clinical isolate 7. Format: functional.
Data set [14] deals with Enterococcus faecalis. Kind of data set: Antibacterial activity against multidrug resistant Enterococcus faecalis ATCC 51299 assessed as resistance development by measuring fold increase in MIC measured after 20 passages. Format: functional.
Data set [15] has as its system Enterococcus faecalis. Kind of data set: Antibacterial activity against multidrug resistant Enterococcus faecalis ATCC 51299 infected in cyclophosphamide immunosuppressed mouse model of abdominal infection assessed as eradication of bacterial colonies in liver at 5 mg/kg measured after 60 hrs relative to control. Format: functional.
The test system of data set [16] is Enterococcus faecalis. Briefly: Antibacterial activity against multidrug resistant Enterococcus faecalis ATCC 51299 infected in cyclophosphamide immunosuppressed mouse model of abdominal infection assessed as eradication of bacterial colonies in spleen at 5 mg/kg measured after 60 hrs relative to control. Format: functional.
In data set [17] the test system is Enterococcus faecalis. Briefly: Antibacterial activity against multidrug resistant Enterococcus faecalis ATCC 51299 infected in cyclophosphamide immunosuppressed mouse model of abdominal infection assessed as eradication of bacterial colonies in kidney at 5 mg/kg measured after 60 hrs relative to control. Format: functional.
Data set [18] deals with Enterococcus faecalis. Kind of data set: Antibacterial activity against multidrug resistant Enterococcus faecalis ATCC 51299 infected in cyclophosphamide immunosuppressed mouse model of abdominal infection assessed as eradication of bacterial colonies in ascites at 5 mg/kg measured after 60 hrs relative to control. In kind it is functional.

SMILES strings stand for the structures. Converted amounts (≈) assume the structure as drawn. The source made the active and inactive calls. The calls are words filed in the database; no cut-off is given here. Where only a bound is given, the exact number is not on record here.

For `CN[C@H](CC(C)C)C(=O)N[C@H]1C(=O)N[C@@H](CC(N)=O)C(=O)N[C@H]2C(=O)N[C@H]3C(=O)N[C@H](C(=O)N[C@H](C(=O)O)c4cc(O)cc(O)c4-c4cc3ccc4O)[C@H](O)c3ccc(c(Cl)c3)Oc3cc2cc(c3O[C@@H]2O[C@H](CO)[C@@H](O)[C@H](O)[C@H]2O[C@H]2C[C@](C)(N)[C@H](O)[C@H](C)O2)Oc2ccc(cc2Cl)[C@H]1O` [VANCOMYCIN], the MIC against Enterococcus faecalis [1] is more than 128 µg/mL; with Enterococcus faecalis [2] it was 2 µg/mL (≈ 1.38 µM). The MBEC in the data set on Staphylococcus aureus [3] and with Enterococcus faecalis [4] was more than 256 µg/mL throughout. Also, in data set [5], the survival at 168 h was found to be 80%. The result in the data set with Staphylococcus aureus [6] was Active. The Activity with Staphylococcus aureus [7] is reported as 5.1 10^6CFU.
For the compound `CC1(C)S[C@@H]2[C@H](NC(=O)[C@H](N)c3ccccc3)C(=O)N2[C@H]1C(=O)O` [AMPICILLIN], the MIC was more than 128 µg/mL in the data set with Staphylococcus aureus [8]; 2 µg/mL (≈ 5.72 µM) with Enterococcus faecalis [1]; more than 128 µg/mL against Staphylococcus aureus [9]; more than 128 µg/mL in the data set with Staphylococcus aureus [10]; 2 µg/mL (≈ 5.72 µM) in the data set on Staphylococcus aureus [11]; 2 µg/mL (≈ 5.72 µM) in the data set on Staphylococcus aureus [12]. For the same compound, the minimum inhibitory concentration (MIC) in the data set on Enterococcus faecalis [13] and with Enterococcus faecalis [2] was 2 µg/mL (≈ 5.72 µM) in each case. Further, in the data set with Enterococcus faecalis [14], the “fold change (FC)” value is listed as 16. The MBEC in the data set with Staphylococcus aureus [3] and with Enterococcus faecalis [4] was more than 256 µg/mL in each case. Besides, the Activity amounted to 90.58% with Enterococcus faecalis [15], 83.11% in the data set on Enterococcus faecalis [16], 95.99% in the data set on Enterococcus faecalis [17] and 89.18% with Enterococcus faecalis [18].
As for `CCCCCCc1c(-c2ccc(OCCCCN(CCC)CCC)cc2OCCCCN(CCC)CCC)oc2cc(OC)cc(O)c2c1=O`, the minimal inhibitory concentration (MIC) in the data set on Staphylococcus aureus [8] was determined as 8 µg/mL (≈ 11.5 µM); against Enterococcus faecalis [1], 16 µg/mL (≈ 23 µM); against Staphylococcus aureus [9], 16 µg/mL (≈ 23 µM); in the data set on Staphylococcus aureus [10], 8 µg/mL (≈ 11.5 µM); in the data set on Staphylococcus aureus [11] it was 16 µg/mL (≈ 23 µM); with Staphylococcus aureus [12] it was 8 µg/mL (≈ 11.5 µM). For the same compound, the MIC in the data set with Enterococcus faecalis [13] and in the data set with Enterococcus faecalis [2] was 16 µg/mL (≈ 23 µM) in each case.
Consider `CCCCCCc1c(-c2ccc(O)cc2O)oc2cc(OC)cc(O)c2c1=O`, for which the minimal inhibitory concentration (MIC) with Staphylococcus aureus [8] amounted to 4 µg/mL (≈ 10.4 µM); in the data set on Enterococcus faecalis [1], 8 µg/mL (≈ 20.8 µM); with Staphylococcus aureus [9] it was 4 µg/mL (≈ 10.4 µM); against Staphylococcus aureus [10], 4 µg/mL (≈ 10.4 µM); with Staphylococcus aureus [11], 4 µg/mL (≈ 10.4 µM); with Staphylococcus aureus [12] it was 4 µg/mL (≈ 10.4 µM). Moreover, the minimal inhibitory concentration (MIC) in the data set with Enterococcus faecalis [13] is 4 µg/mL (≈ 10.4 µM); against Enterococcus faecalis [2] it was 8 µg/mL (≈ 20.8 µM).
`CCCCCCc1c(-c2ccc(OCCCCNCc3ccco3)cc2OCCCCNCc2ccco2)oc2cc(OC)cc(O)c2c1=O`: the MIC turned out to be 2 µg/mL (≈ 2.91 µM) with Staphylococcus aureus [8]; 4 µg/mL (≈ 5.82 µM) in the data set on Enterococcus faecalis [1]; 4 µg/mL (≈ 5.82 µM) against Staphylococcus aureus [9]; 2 µg/mL (≈ 2.91 µM) in the data set on Staphylococcus aureus [10]; 2 µg/mL (≈ 2.91 µM) against Staphylococcus aureus [11]; 4 µg/mL (≈ 5.82 µM) in the data set with Staphylococcus aureus [12]. In addition, the minimum inhibitory concentration (MIC) was determined as 4 µg/mL (≈ 5.82 µM) against Enterococcus faecalis [13] and 2 µg/mL (≈ 2.91 µM) with Enterococcus faecalis [2].

The MIC is the least concentration at which growth counts as inhibited. A lower MIC goes with a more susceptible organism.

The values are drawn from ChEMBL document CHEMBL5512659, “Structure optimizing of flavonoids against both MRSA and VRE” (Eur J Med Chem, 2024).
